Test results published in BindingDB's records for doi:10.1021/jm950641i (Sandoz Research Institute, 1996).

Experiments:
[1] = target: T1, Dimer of Gag-Pol polyprotein [489-587] (Human immunodeficiency virus 1, UniProt P12497); assay: Protease Inhibition Assay; settings: pH 6.25; 37 °C
T1 construct: 489-587
Procedure: (§1) Enzymatic activity was measured by following cleavage of the substrate H-Lys-Ala-Arg-Val-Leu-pNph-Glu-Ala-Nle-NH2. Products of the cleavage reaction were quantified by HPLC detection.

[2] = target: T2, Dimer of Gag-Pol polyprotein [514-612] (Human immunodeficiency virus 2, UniProt P04584); assay: Protease Inhibition Assay; settings: pH 4.7; 37 °C
T2 construct: 514-612
T2 sequence (P04584 whole entry): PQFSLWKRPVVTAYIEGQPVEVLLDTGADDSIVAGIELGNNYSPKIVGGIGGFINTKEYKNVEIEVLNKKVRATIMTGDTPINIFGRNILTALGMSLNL
Procedure: as §1

| SMILES | Ki [1] | Ki [2] |
| --- | --- | --- |
| CC(C)C1NC(=O)[C@@H](C(O)[C@H](Cc2ccccc2)NC(=O)[C@@H](NC(=O)CSc2nncn2C)C(C)(C)C)NCc2ccc(cc2)OCCOCCNC1=O (stereo partly drawn) [(2S)-N-[(1S,2S)-1-[(10R,13R)-9,12-dioxo-10-(propan-2-yl)-2,5-dioxa-8,11,14-triazabicyclo[14.2.2]icosa-1(18),16,19-trien-13-yl]-1-hydroxy-3-phenylpropan-2-yl]-3,3-dimethyl-2-{2-[(4-methyl-4H-1,2,4-triazol-3-yl)sulfanyl]acetamido}butanamide] | 11.1 nM | – |
| CC(C)C1NC(=O)[C@@H](C(O)[C@H](Cc2ccccc2)NC(=O)OC2CCOC2)NCc2ccc(cc2)OCCOCCNC1=O (stereo partly drawn) [(3R)-oxolan-3-yl N-[(1S,2S)-1-[(10R,13R)-9,12-dioxo-10-(propan-2-yl)-2,5-dioxa-8,11,14-triazabicyclo[14.2.2]icosa-1(18),16,19-trien-13-yl]-1-hydroxy-3-phenylpropan-2-yl]carbamate] | 8.2 nM | – |
| CC(C)C1NC(=O)[C@@H](C(O)[C@H](Cc2ccccc2)NC(=O)[C@@H](NC(=O)OCc2ccccc2)C(C)C)NCc2ccc(cc2)OCCCCNC1=O (stereo partly drawn) [benzyl N-[(1S)-1-{[(1S,2S)-1-[(9R,12R)-8,11-dioxo-9-(propan-2-yl)-2-oxa-7,10,13-triazabicyclo[13.2.2]nonadeca-1(17),15,18-trien-12-yl]-1-hydroxy-3-phenylpropan-2-yl]carbamoyl}-2-methylpropyl]carbamate] | 6.6 nM | – |
| CC(C)C1NC(=O)[C@@H](C(O)[C@H](Cc2ccccc2)NC(=O)[C@@H](NC(=O)OCc2ccccc2)C(C)(C)C)NCc2ccc(cc2)OCCOCCNC1=O (stereo partly drawn) [benzyl N-[(1S)-1-{[(1S,2S)-1-[(10R,13R)-9,12-dioxo-10-(propan-2-yl)-2,5-dioxa-8,11,14-triazabicyclo[14.2.2]icosa-1(18),16,19-trien-13-yl]-1-hydroxy-3-phenylpropan-2-yl]carbamoyl}-2,2-dimethylpropyl]carbamate] | 8 nM | 16 nM |
| CC(C)C1NC(=O)[C@@H](C(O)[C@H](Cc2ccccc2)NC(=O)[C@@H](NC(=O)OCc2ccccc2)C(C)C)NCc2ccc(cc2)OCCOCCNC1=O (stereo partly drawn) [benzyl N-[(1S)-1-{[(1S,2S)-1-[(10R,13R)-9,12-dioxo-10-(propan-2-yl)-2,5-dioxa-8,11,14-triazabicyclo[14.2.2]icosa-1(18),16,19-trien-13-yl]-1-hydroxy-3-phenylpropan-2-yl]carbamoyl}-2-methylpropyl]carbamate] | 7.9 nM | 19 nM |
| CC(C)C1NC(=O)[C@@H](C(O)[C@H](Cc2ccccc2)NC(=O)[C@@H](NC(=O)OCc2ccccc2)C(C)C)NCc2ccc(cc2)OCCOCCOCCNC1=O (stereo partly drawn) [benzyl N-[(1S)-1-{[(1S,2S)-1-[(13R,16R)-12,15-dioxo-13-(propan-2-yl)-2,5,8-trioxa-11,14,17-triazabicyclo[17.2.2]tricosa-1(21),19,22-trien-16-yl]-1-hydroxy-3-phenylpropan-2-yl]carbamoyl}-2-methylpropyl]carbamate] | 6.9 nM | 27 nM |
| CC(C)C1NC(=O)[C@@H](C(O)[C@H](Cc2ccccc2)NC(=O)[C@@H](NC(=O)OCc2ccccc2)C(C)C)NCc2cccc(c2)OCCOCCOCCNC1=O (stereo partly drawn) [benzyl N-[(1S)-1-{[(1S,2S)-1-[(13R,16R)-12,15-dioxo-13-(propan-2-yl)-2,5,8-trioxa-11,14,17-triazabicyclo[17.3.1]tricosa-1(22),19(23),20-trien-16-yl]-1-hydroxy-3-phenylpropan-2-yl]carbamoyl}-2-methylpropyl]carbamate] | 7.7 nM | – |
| COc1ccc(CN[C@@H](C(=O)N[C@H]2c3ccccc3CC2O)C(O)[C@H](Cc2ccccc2)NC(=O)[C@@H](NC(=O)OCc2ccccc2)C(C)(C)C)cc1 (stereo partly drawn) [benzyl N-[(1S)-1-{[(2S,3S,4R)-3-hydroxy-4-{[(1S,2S)-2-hydroxy-2,3-dihydro-1H-inden-1-yl]carbamoyl}-4-{[(4-methoxyphenyl)methyl]amino}-1-phenylbutan-2-yl]carbamoyl}-2,2-dimethylpropyl]carbamate] | 9.5 nM | 50 nM |
| COc1ccc(CN[C@@H](C(=O)NC(C(=O)NCc2nc3ccccc3[nH]2)C(C)C)C(O)[C@H](Cc2ccccc2)NC(=O)[C@@H](NC(=O)OCc2ccccc2)C(C)C)cc1 (stereo partly drawn) [benzyl N-[(1S)-1-{[(2S,3S,4R)-4-{[(1R)-1-[(1H-1,3-benzodiazol-2-ylmethyl)carbamoyl]-2-methylpropyl]carbamoyl}-3-hydroxy-4-{[(4-methoxyphenyl)methyl]amino}-1-phenylbutan-2-yl]carbamoyl}-2-methylpropyl]carbamate] | 3.4 nM | – |
| CC(C)C1NC(=O)[C@@H](C(O)[C@H](Cc2ccccc2)NC(=O)OC(C)(C)C)NCc2ccc(cc2)OCCCCNC1=O (stereo partly drawn) [tert-butyl N-[(1S,2S)-1-[(9R,12R)-8,11-dioxo-9-(propan-2-yl)-2-oxa-7,10,13-triazabicyclo[13.2.2]nonadeca-1(17),15,18-trien-12-yl]-1-hydroxy-3-phenylpropan-2-yl]carbamate] | 17 nM | – |
| CC(C)C1NC(=O)[C@@H](C(O)[C@H](Cc2ccccc2)NC(=O)OC(C)(C)C)NCc2ccc(cc2)OCCOCCNC1=O (stereo partly drawn) [tert-butyl N-[(1S,2S)-1-[(10R,13R)-9,12-dioxo-10-(propan-2-yl)-2,5-dioxa-8,11,14-triazabicyclo[14.2.2]icosa-1(18),16,19-trien-13-yl]-1-hydroxy-3-phenylpropan-2-yl]carbamate] | 14 nM | – |
| CC(C)C1NC(=O)[C@@H](C(O)[C@H](Cc2ccccc2)NC(=O)OC(C)(C)C)NCc2cccc(c2)OCCOCCOCCNC1=O (stereo partly drawn) [tert-butyl N-[(1S,2S)-1-[(13R,16R)-12,15-dioxo-13-(propan-2-yl)-2,5,8-trioxa-11,14,17-triazabicyclo[17.3.1]tricosa-1(22),19(23),20-trien-16-yl]-1-hydroxy-3-phenylpropan-2-yl]carbamate] | 208 nM | – |
| CC(C)C1NC(=O)[C@@H](C(O)[C@H](Cc2ccccc2)NC(=O)OC(C)(C)C)NCc2ccc(cc2)OCCOCCOCCOCCNC1=O (stereo partly drawn) [tert-butyl N-[(1S,2S)-1-[(16R,19R)-15,18-dioxo-16-(propan-2-yl)-2,5,8,11-tetraoxa-14,17,20-triazabicyclo[20.2.2]hexacosa-1(24),22,25-trien-19-yl]-1-hydroxy-3-phenylpropan-2-yl]carbamate] | 23.2 nM | – |
